Experimental data taken from paper PMC11190223, “Identification of sulfakinin receptor regulating feeding behavior and hemolymph trehalose homeostasis in the silkworm, Bombyx mori” (Scientific Reports, 2024).
pEC50: −log10 of the molar value. Where no end group is shown, it is not given here. [ ]: non-standard residue; d: D form. sY = N[C@@H](Cc1ccc(OS(=O)(=O)O)cc1)C(=O)O

Assays:
BNGR-A9 [1] = assay: CRE-driven luciferase reporter assay, BNGR-A9; type: cell-based, Bombyx mori; conditions: 4 h, at least three independent experiments; for pEC50: dose-response
Description: The entire coding region of BNGR-A9 (NM_001134272.1) was obtained by PCR and subsequently cloned into pEGFP-N1 and pCMV-Flag vectors using the primers listed in Table S1. The Flag-BNGR-A9 construct was generated for functional assays, including CRE-luciferase, calcium mobilization, and ERK phosphorylation assays, while BNGR-A9-EGFP was created for receptor visualization purposes. Additionally, for expression in the BmN cell system, the BNGR-A9 gene was inserted into the pIZT/V5-His vector. All constructs were validated by DNA sequencing.
HEK293 cells were cultured with Dulbecco’s Modified Eagle’s Medium (Gibco, NY, USA) supplied with 10% Fetal bovine serum (Gibco, NY, USA) in a 37 °C humidified incubator containing 5% CO2. BmN cells were maintained in TC 100 insect medium (AppliChem, Darmstadt, Germany) supplied with 10% Fetal bovine serum in a 28 °C incubator. Both HEK293 and BmN cells were transfected with X-tremeGENE (Roche, Mannheim, Germany) according to the manufacturer’s instruction.
HEK293 and BmN cells were transfected with the different Bombyx receptors (Flag-BNGR-A9, -A24, -A32, or A33 for HEK293 cells, and pIZT-BNGR-A9, -A24, -A32, or A33 for BmN cells) along with the corresponding CRE-reporter plasmid. When cell confluence reached 90–95%, they were treated with various concentrations of Bombyx mori neuropeptides, with or without forskolin. Following a 4-h incubation period, cells were lysed, and luciferase activities were determined using a firefly luciferase kit (Beyotime, Shanghai, China).
Data analysis was conducted using GraphPad Prism (San Diego, CA), with results presented as mean ± SEM. Statistical significance was assessed through Student’s t-test or two-way ANOVA with multiple comparisons, with p values below 0.05 denoted as significant (*p < 0.05, **p < 0.01, ***p < 0.001). Dose–response curves were generated via non-linear curve fitting. Adobe Photoshop was used to process images, ensuring uniform brightness and contrast settings across all conditions. All images and data provided represent findings from a minimum of three independent experiments.

BNGR-A9 [2] = assay: cAMP ELISA in BNGR-A9-expressing HEK293 cells; type: cell-based, Bombyx mori; conditions: 1 μM, 15 min, IBMX pretreatment (300 μM, 1 h)
Procedure: 1. Measurement of cAMP accumulation
Cells were seeded in 24-well plates and incubated overnight. Prior to treatment, cells
were pre-treated with the phosphodiesterase inhibitor IBMX (300 μM) for 1 hour.
Subsequently, cells were treated with different Bombyx neuropeptides for 15 minutes.
The reaction was terminated by removing the medium, followed by the addition of
ice-cold PBS and a single wash. Cell lysis was performed, and cAMP formation was
assessed using a competitive binding technique based on an enzyme-linked
immunosorbent assay (ELISA) (Parameter cAMP assay, R&D, Minneapolis, USA)
following the manufacturer's instructions. The results were expressed as the fold
change in cAMP concentration compared to the control concentration in the
2. Determination of Glucose of hemolymph
Silkworm larvae were anesthetized by cooling on ice, after which hemolymph was
collected using a micropipette from an incision made at the abdominal leg.
Approximately 5 mg of phenylthiourea (to achieve a final concentration of 2.5% w/v)
was added to the hemolymph in a 1.5 ml Eppendorf tube to inhibit clotting.
Hemolymph samples from 10 insects were then centrifuged at 12,000 rpm for 10
minutes at 4 °C to sediment any particulates. The glucose concentration in the
hemolymph was determined using a glucose oxidase-peroxidase kit (Shanghai […]
by stimulation with 1μM BmnsSK or BmsSK for 15 min, and the cAMP level was determined […]

BNGR-A9 [3] = assay: ERK1/2 phosphorylation (western blot), BNGR-A9-expressing HEK293 cells; type: cell-based, Bombyx mori
[4] = system: ERK phosphorylation in silkworm brains; assay: ERK phosphorylation (western blot), silkworm larval brains ex vivo; design: species or system Bombyx mori
Procedure: HEK293 cells with Flag-BNGR-A9 were exposed to 100 nM BmsSK for different durations and then lysed using RIPA buffer (Beyotime, China). For ex vivo assays, brains from 5th instar silkworm larvae were treated with BmsSK (100 nM) for 1, 2, or 8 h, either with a pre-treatment of Gαq inhibitor FR900359 for 30 min or without it. After treatment, samples were lysed, homogenized, and their protein concentrations were determined with a BCA protein kit (Takara, Japan). For western blot analysis, equal amounts of protein lysate were used. Protein expression was analyzed using specific primary antibodies: rabbit monoclonal antibodies for total and phosphorylated ERK from Cell Signaling Technology (MA, USA).

[5] = Feeding behavior assay: larval body weight; type: in vivo, Bombyx mori; conditions: injected daily, final concentration 10 nM, 5th instar larvae, days 2 and 4 post-injection vs control (HBM)
Procedure: Synchronized larvae of the first day of 5th instar were chosen for feeding behavior assay. Silkworms were starved for 12 h to standardize the starting level. To knock down bngr-a9, 5 μg dsRNA/BNGR-A9 or dsRNA/EGFP was injected into the abdomen of the larvae at the indicated time using a 10 μl microsyringe. For silkworms, both treated and untreated with dsRNA, synthetic SK peptide (at a final concentration of 10 nM) was injected daily starting from the second day of the fifth instar. For each trial, twenty synchronized P50 larvae were used. After injection, the silkworm larvae were fed with enough mulberry leaves three times a day and maintained under standard conditions. Larval body weights and food consumption were measured every other day until pupation.

[6] = Hemolymph trehalose determination; type: in vivo, Bombyx mori
Procedure: Silkworm larvae were anesthetized by cooling on ice, after which hemolymph was collected using a micropipette from an incision made at the abdominal leg. Approximately 5 mg of phenylthiourea (to achieve a final concentration of 2.5% w/v) was added to the hemolymph in a 1.5 ml Eppendorf tube to inhibit clotting. Hemolymph samples from 10 insects were then centrifuged at 12,000 rpm for 10 min at 4 °C to sediment any particulates. For trehalose measurement, the hemolymph underwent pretreatment with trehalase (Megazyme, Chicago, US), following the manufacturer’s protocol. Subsequently, the sugar concentration in the hemolymph was assessed using a glucose oxidase–peroxidase kit (Shanghai Rongsheng Biotech, China).

BmsSK: Bombyx mori sulfated-sulfakinin, synthetic; sulfated version of GDDTFDD^8YGHLRF-NH2 (GDDTFDD[sY]GHLRF-NH2; N-terminus assumed; SMILES CC(C)C[C@H](NC(=O)[C@H](Cc1c[nH]cn1)NC(=O)CNC(=O)[C@H](Cc1ccc(OS(=O)(=O)O)cc1)NC(=O)[C@H](CC(=O)O)NC(=O)[C@H](CC(=O)O)NC(=O)[C@H](Cc1ccccc1)NC(=O)[C@@H](NC(=O)[C@H](CC(=O)O)NC(=O)[C@H](CC(=O)O)NC(=O)CN)[C@@H](C)O)C(=O)N[C@@H](CCCNC(=N)N)C(=O)N[C@@H](Cc1ccccc1)C(N)=O)
pEC50 (BNGR-A9 [1]; BmN cells stably expressing BNGR-A9): 7.22 | Activation of BNGR-A9 (CRE-driven luciferase activity) (BNGR-A9 [1]; HEK293 and BmN cells, 1 μM peptide, with or without forskolin (5 μM)): could activate BNGR-A9 | pEC50 (BNGR-A9 [1]; HEK293 cells stably expressing BNGR-A9): 7.13 | Intracellular cAMP level (BNGR-A9 [2]): remained unchanged | ERK1/2 phosphorylation (BNGR-A9 [3]; HEK293 cells expressing BNGR-A9, serum-starved 1 h): quick and dose-dependent increase in ERK1/2 phosphorylation | Time of peak ERK1/2 phosphorylation (BNGR-A9 [3]; HEK293 cells, 10 nM BmsSK time course (Fig. 7A)): 5 min | Time of peak ERK1/2 phosphorylation ([4]; 5th instar silkworm brains, 100 nM BmsSK for 1, 2 or 8 h): 2 h | ERK1/2 phosphorylation ([4]; silkworm brains, 100 nM BmsSK): quick and dose-dependent increase in ERK1/2 phosphorylation | Body weight [5]: weight loss | Body weight ([5]; listed as synthetic sulfated- SK): notably declined | Hemolymph trehalose level ([6]; BmsSK final 10 nM, 24 h after EGFP dsRNA injection, hemolymph collected 24 h later): significant increase in trehalose levels | Hemolymph trehalose level ([6]; following BmsSK injection (restated in discussion)): significant rise in circulating hemolymph trehalose
